Experiments:
hRET(M918T) = molecular target: T1, hRET(M918T) (Homo sapiens, UniProt P07949, M918T); experiment: KINOMEscan; type: binding
T1 construct: purchased DiscoverX (KINOMEscan platform)

hICK = molecular target: T2, hICK (Homo sapiens, UniProt Q9UPZ9); experiment: KINOMEscan; type: binding
T2 construct: purchased DiscoverX (KINOMEscan panel)

hSRC = molecular target: T3, hSRC (Homo sapiens, UniProt P12931); experiment: KINOMEscan; type: binding
T3 construct: purchased DiscoverX (KINOMEscan platform)

h5HT2B [1] = molecular target: T4, h5HT2B (Homo sapiens, UniProt P41595); experiment: Calcium Mobilization Potentiation (Eurofins-CEREP); settings: @ 10 μM
T4 sequence (P41595 whole entry): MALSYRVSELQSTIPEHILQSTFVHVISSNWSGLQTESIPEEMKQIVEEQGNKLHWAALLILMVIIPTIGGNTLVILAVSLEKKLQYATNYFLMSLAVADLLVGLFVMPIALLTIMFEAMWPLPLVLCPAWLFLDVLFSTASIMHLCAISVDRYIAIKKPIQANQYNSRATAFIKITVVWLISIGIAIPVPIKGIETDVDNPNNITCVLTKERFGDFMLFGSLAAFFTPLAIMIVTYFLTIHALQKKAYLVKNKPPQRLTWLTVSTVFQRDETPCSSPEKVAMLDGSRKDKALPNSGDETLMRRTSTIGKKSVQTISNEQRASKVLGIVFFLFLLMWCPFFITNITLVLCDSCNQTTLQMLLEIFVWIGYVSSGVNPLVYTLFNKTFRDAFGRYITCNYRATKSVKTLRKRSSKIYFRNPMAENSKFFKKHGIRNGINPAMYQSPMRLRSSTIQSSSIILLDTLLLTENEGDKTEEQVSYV

hJNK2 = molecular target: T5, hJNK2 (Homo sapiens, UniProt P45984); experiment: KINOMEscan; type: binding
T5 construct: purchased DiscoverX (KINOMEscan panel)
T5 sequence (P45984 whole entry): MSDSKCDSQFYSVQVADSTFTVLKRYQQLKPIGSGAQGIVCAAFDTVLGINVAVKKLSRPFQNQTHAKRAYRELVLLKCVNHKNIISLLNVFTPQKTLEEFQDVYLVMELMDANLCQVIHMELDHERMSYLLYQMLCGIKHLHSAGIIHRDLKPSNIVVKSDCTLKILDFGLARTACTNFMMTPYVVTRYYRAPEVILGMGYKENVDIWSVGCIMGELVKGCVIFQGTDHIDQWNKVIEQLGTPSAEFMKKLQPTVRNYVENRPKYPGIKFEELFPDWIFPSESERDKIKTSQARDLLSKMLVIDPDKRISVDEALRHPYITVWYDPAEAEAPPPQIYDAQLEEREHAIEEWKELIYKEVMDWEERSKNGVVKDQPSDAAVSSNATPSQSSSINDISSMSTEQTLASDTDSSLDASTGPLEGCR

hDDR2 = molecular target: T6, hDDR2 (Homo sapiens, UniProt Q16832); experiment: KINOMEscan; type: binding
T6 construct: purchased DiscoverX (KINOMEscan platform)

hFXR = hFXR (Homo sapiens, UniProt Q96RI1); experiment: Nuclear hormone receptor assay (Eurofins-CEREP)
hMAP4K5 = molecular target: T7, hMAP4K5 (Homo sapiens, UniProt Q9Y4K4); experiment: KINOMEscan; type: binding
T7 construct: purchased DiscoverX

hMAP4K2 = molecular target: T8, hMAP4K2 (Homo sapiens, UniProt Q12851); experiment: KINOMEscan; type: binding
T8 construct: purchased DiscoverX (KINOMEscan platform)
T8 sequence (Q12851 whole entry): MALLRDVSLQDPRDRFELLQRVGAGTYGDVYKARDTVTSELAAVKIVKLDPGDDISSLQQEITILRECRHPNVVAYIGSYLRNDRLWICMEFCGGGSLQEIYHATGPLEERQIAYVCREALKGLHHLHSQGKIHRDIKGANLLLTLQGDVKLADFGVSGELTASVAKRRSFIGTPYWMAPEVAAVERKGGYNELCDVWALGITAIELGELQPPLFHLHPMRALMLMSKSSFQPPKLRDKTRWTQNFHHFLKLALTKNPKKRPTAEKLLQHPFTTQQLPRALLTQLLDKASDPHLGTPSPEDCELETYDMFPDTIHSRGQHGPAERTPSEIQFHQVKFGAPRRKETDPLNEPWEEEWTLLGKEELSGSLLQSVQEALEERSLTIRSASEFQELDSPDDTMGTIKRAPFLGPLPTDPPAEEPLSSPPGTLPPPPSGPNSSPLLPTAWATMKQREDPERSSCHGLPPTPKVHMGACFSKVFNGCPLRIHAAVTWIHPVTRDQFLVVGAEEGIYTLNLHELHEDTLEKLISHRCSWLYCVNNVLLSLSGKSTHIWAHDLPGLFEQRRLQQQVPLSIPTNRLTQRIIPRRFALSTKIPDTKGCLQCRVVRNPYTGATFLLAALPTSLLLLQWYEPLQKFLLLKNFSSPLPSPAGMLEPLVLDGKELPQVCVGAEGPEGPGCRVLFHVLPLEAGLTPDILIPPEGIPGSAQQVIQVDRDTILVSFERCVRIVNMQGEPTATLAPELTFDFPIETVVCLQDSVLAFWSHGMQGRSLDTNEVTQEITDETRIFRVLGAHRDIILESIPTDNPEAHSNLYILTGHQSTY

hCSF1R = molecular target: T9, hCSF1R (Homo sapiens, UniProt P07333); experiment: KINOMEscan; type: binding
T9 construct: purchased DiscoverX (KINOMEscan platform)

hGAK = molecular target: T10, hGAK (Homo sapiens, UniProt O14976); experiment: KINOMEscan; type: binding
T10 construct: purchased DiscoverX

hIRAK3 = molecular target: T11, hIRAK3 (Homo sapiens, UniProt Q9Y616); experiment: KINOMEscan; type: binding
T11 construct: purchased DiscoverX (KINOMEscan panel)

h5HT2B [2] = molecular target: T4, h5HT2B; experiment: Calcium Mobilization Agonist (Eurofins-CEREP); settings: @ 13.3 μM
hROCK2 = molecular target: T12, hROCK2 (Homo sapiens, UniProt O75116); experiment: KINOMEscan; type: binding
T12 construct: purchased DiscoverX (KINOMEscan platform)

hADRα1A = molecular target: T13, hADRα1A (Homo sapiens, UniProt P35348); experiment: Calcium Mobilization Antagonist (Eurofins-CEREP); settings: read-out: % Effect, Inhibition
T13 sequence (P35348 1-466): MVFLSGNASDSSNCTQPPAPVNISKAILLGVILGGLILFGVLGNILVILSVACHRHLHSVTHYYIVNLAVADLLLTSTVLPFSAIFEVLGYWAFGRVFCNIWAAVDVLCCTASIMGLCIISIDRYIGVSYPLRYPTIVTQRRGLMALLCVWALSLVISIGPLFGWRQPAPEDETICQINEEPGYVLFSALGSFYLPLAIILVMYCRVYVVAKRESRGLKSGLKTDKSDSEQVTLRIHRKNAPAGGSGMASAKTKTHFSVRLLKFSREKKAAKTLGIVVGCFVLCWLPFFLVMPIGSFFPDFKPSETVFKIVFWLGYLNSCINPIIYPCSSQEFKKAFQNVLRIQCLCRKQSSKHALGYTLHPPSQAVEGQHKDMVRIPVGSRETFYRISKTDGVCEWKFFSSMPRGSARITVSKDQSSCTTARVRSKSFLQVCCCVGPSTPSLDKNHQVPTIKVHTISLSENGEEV

hIKK-alpha = molecular target: T14, hIKK-alpha (Homo sapiens, UniProt O15111); experiment: KINOMEscan; type: binding
T14 construct: purchased DiscoverX (KINOMEscan panel)

hTGFBR1 = molecular target: T15, hTGFBR1 (Homo sapiens, UniProt P36897); experiment: KINOMEscan; type: binding
T15 construct: purchased DiscoverX

hKIT(D816V) = molecular target: T16, hKIT(D816V) (Homo sapiens, UniProt P10721, D816V); experiment: KINOMEscan; type: binding
T16 construct: purchased DiscoverX (KINOMEscan panel)

hAURKC = molecular target: T17, hAURKC (Homo sapiens, UniProt Q9UQB9); experiment: KINOMEscan; type: binding
T17 construct: purchased DiscoverX

p53 Lys370 methylation = experiment: Western blot time course and subcellular fractionation, KYSE-150 cells stably expressing FLAG-SMYD2; type: cell-based, human
Procedure: 5 × 10^6 KYSE-150 cells or KYSE-150 cells stably overexpressing SMYD2 were harvested and separated into subcellular fractions using the Subcellular Protein Fractionation kit for cultured cells (Thermo Scientific) according to the manufacturer's instructions. Lysates were reduced, boiled, subjected to 4–20% SDS-PAGE, and transferred to nitrocellulose membranes. […] Each membrane was then incubated with ECL anti-rabbit or anti-mouse IgG HRP-linked whole antibody (GE Healthcare) followed by detection with SuperSignal West Femto Maximum Sensitivity Substrate (Thermo Scientific) on a ChemiDoc^TM XRS system (Bio-Rad). Primary tumor lysates in RIPA buffer were obtained from Crownbio Bioscience. Cancer cell lines were obtained from the German Collection of Microorganisms and Cell Cultures GmbH (DSMZ), the Korean Cell Line Bank, the Japanese Collection of Research Bio-Resources, or the American Type Culture Collection (ATCC). Tumor cells were lysed in buffer containing 50 mM Tris-HCl, pH 7.5, 500 mM NaCl, 1% Nonidet P-40, 0.25% sodium deoxycholate, 20 mM NaF, protease inhibitor mixture (Roche Applied Science), and phosphatase inhibitor mixtures I and II (Sigma). Tumor or cell lysates were boiled, subjected to 4–20% SDS-PAGE, and transferred to nitrocellulose membrane. Each membrane was blocked in Odyssey Blocking Buffer and incubated with custom-made mouse monoclonal anti-SMYD2 or mouse monoclonal anti-β-actin (Sigma) antibody followed by detection with IRDye680RD goat anti-mouse IgG on the Odyssey Imager.

hEGFR(L747-T751del,Sins) = hEGFR(L747-T751del,Sins) (Homo sapiens, UniProt P00533, DEL747-751/INS746S); experiment: KINOMEscan; type: binding
hEGFR(L747-T751del,Sins), sequence (P00533 712-979, stated change not applied): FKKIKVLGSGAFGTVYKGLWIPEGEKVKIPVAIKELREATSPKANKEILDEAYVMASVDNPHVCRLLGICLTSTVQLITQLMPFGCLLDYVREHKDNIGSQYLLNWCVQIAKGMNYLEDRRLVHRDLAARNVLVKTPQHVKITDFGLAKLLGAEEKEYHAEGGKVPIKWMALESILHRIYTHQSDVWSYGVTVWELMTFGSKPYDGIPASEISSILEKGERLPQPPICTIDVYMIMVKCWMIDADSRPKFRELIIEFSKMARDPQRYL

hTXK = molecular target: T18, hTXK (Homo sapiens, UniProt P42681); experiment: KINOMEscan; type: binding
T18 construct: purchased DiscoverX

hHUNK = molecular target: T19, hHUNK (Homo sapiens, UniProt P57058); experiment: KINOMEscan; type: binding
T19 construct: purchased DiscoverX (KINOMEscan panel)

hLXRα = molecular target: T20, hLXRα (Homo sapiens, UniProt Q13133); experiment: Nuclear hormone receptor assay (Eurofins-CEREP); settings: read-out: Relative IC50
T20 construct: Eurofins-CEREP

hM3 = hM3 (Homo sapiens, UniProt P20309); experiment: Calcium Mobilization Agonist (Eurofins-CEREP); settings: @ 13.3 μM
hSLK = molecular target: T21, hSLK (Homo sapiens, UniProt Q9H2G2); experiment: KINOMEscan; type: binding
T21 construct: purchased DiscoverX (KINOMEscan platform)
T21 sequence (Q9H2G2 whole entry): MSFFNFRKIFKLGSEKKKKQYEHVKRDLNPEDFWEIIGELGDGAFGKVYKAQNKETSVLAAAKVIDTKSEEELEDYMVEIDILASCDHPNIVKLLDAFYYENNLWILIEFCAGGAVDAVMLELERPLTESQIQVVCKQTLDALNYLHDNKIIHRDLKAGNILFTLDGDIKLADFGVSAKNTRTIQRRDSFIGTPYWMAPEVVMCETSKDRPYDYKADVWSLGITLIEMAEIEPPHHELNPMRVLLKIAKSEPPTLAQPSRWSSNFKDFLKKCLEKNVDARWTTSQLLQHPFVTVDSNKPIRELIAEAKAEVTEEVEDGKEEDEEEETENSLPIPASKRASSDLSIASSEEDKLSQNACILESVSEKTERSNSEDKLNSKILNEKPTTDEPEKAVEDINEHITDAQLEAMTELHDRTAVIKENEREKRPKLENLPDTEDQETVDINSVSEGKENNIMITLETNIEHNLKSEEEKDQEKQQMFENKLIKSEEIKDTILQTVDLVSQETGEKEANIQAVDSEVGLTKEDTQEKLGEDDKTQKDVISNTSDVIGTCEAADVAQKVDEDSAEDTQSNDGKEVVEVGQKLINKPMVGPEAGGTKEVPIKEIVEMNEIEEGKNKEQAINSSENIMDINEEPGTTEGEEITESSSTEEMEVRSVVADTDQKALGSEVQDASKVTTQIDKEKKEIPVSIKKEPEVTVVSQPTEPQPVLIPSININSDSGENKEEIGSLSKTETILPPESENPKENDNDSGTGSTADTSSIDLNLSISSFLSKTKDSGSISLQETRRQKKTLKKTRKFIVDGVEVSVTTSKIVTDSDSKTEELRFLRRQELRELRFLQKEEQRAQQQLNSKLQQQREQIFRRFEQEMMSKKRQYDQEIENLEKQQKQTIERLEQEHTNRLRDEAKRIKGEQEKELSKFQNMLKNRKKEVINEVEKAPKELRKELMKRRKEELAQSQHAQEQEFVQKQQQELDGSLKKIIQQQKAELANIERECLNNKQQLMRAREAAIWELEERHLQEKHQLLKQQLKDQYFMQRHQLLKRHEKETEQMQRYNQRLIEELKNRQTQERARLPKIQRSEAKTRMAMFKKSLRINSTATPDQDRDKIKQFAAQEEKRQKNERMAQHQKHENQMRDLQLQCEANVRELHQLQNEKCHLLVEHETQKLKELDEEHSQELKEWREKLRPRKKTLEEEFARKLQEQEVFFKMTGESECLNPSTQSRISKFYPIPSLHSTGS

T2 sequence (Q9UPZ9 whole entry): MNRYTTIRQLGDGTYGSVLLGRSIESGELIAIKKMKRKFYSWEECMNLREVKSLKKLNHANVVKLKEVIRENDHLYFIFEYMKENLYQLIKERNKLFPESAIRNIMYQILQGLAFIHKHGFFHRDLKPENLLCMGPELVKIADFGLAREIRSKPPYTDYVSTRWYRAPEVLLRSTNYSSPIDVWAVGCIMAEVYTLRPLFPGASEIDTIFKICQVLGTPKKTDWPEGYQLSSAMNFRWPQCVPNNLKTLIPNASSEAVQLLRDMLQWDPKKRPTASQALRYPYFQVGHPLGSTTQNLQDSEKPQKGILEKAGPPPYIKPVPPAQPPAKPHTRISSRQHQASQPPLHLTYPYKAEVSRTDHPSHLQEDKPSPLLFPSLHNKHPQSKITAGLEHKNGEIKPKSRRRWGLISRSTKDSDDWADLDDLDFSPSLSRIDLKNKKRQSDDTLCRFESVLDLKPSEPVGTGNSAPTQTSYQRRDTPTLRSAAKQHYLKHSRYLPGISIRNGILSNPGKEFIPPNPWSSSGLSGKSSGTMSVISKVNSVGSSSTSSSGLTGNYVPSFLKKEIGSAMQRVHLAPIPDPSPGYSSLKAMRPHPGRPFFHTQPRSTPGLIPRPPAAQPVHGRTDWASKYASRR
T1 sequence (P07949 29-1114 M918T): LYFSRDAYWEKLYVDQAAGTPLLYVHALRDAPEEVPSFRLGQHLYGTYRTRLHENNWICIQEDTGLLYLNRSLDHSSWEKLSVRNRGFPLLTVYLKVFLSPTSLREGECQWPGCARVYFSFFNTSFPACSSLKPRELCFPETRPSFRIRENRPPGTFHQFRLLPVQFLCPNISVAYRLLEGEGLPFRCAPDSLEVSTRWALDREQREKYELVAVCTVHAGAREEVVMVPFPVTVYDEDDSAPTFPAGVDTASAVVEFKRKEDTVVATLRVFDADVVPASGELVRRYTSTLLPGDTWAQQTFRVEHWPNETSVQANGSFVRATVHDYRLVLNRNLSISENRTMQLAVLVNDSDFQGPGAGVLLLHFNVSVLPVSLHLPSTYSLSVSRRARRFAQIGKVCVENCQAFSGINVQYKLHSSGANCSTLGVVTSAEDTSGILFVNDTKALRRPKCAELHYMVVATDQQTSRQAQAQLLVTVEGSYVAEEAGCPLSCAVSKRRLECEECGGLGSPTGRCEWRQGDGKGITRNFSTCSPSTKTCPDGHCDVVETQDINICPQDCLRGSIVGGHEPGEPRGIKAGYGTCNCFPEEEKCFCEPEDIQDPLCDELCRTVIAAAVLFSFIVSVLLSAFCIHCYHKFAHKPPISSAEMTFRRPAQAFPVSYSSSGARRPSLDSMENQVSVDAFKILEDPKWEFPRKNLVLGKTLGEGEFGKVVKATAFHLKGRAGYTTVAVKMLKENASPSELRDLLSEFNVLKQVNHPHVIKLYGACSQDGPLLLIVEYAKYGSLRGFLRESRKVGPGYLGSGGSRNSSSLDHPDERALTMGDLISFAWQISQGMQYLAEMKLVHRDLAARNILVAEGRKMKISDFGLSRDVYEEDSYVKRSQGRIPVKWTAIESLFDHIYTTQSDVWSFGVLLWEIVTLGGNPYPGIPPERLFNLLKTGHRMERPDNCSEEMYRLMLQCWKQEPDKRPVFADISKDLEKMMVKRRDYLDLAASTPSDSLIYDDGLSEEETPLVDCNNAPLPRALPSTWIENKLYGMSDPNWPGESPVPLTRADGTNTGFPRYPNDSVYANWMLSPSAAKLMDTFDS

Cc1cn(CCN2CCN(c3ccccc3-c3cc(C#N)cc(C(=O)NCCCN4CCCC4)c3)CC2)c2ccccc12 [LLY-507, 3-cyano-5-{2-[4-[2-(3-methylindol-1-yl)ethyl]piperazin-1-yl]-phenyl}-N-[(3-pyrrolidin-1-yl)propyl]benzamide]
IC50 (hRET(M918T)): > 20 µM | IC50 (hICK): > 20 µM | IC50 (hSRC): > 20 µM | % Effect, Potentiation (h5HT2B [1]): -7.3% | IC50 (hJNK2): > 20 µM | IC50 (hDDR2): > 20 µM | IC50 (hFXR): > 10 µM | IC50 (hMAP4K5): > 20 µM | IC50 (hMAP4K2): > 20 µM | IC50 (hCSF1R): > 20 µM | IC50 (hGAK): > 20 µM | IC50 (hIRAK3): > 20 µM | % Effect, Stimulation (h5HT2B [2]): 3.4% | IC50 (hROCK2): > 20 µM | inhibition at 10 µM (hADRα1A): 98% | IC50 (hIKK-alpha): > 20 µM | IC50 (hTGFBR1): > 20 µM | IC50 (hKIT(D816V)): > 20 µM | IC50 (hAURKC): > 20 µM | time by which significant reductions in p53 Lys370 methylation occurred (p53 Lys370 methylation; 5 μM LLY-507, SMYD2-overexpressing KYSE-150): ≤ 18 h | total levels of p53 (p53 Lys370 methylation; KYSE-150 FLAG-SMYD2): not significantly affected | reduction of Lys370 methylation on cytoplasmic p53 (p53 Lys370 methylation; cytoplasmic fraction, KYSE-150 FLAG-SMYD2): 50% | reduction of Lys370 methylation on nuclear p53 (p53 Lys370 methylation; nuclear fraction, KYSE-150 FLAG-SMYD2): 25% | IC50 (hEGFR(L747-T751del,Sins)): > 20 µM | IC50 (hTXK): > 20 µM | IC50 (hHUNK): > 20 µM | IC50 (hLXRα): > 10 µM | % Effect, Stimulation (hM3): -1.4% | IC50 (hSLK): > 20 µM

From paper PMC4447944 (The Journal of Biological Chemistry, 2015)
